Source: patent publication US11932630B2, “Heteroaryl aminopropanol derivatives” (NOVARTIS AG, priority 2021, dated 2024)
Where two headings read alike, the source gives them in different places.

Experiments:
[1] = system: LTB4 biosynthesis in human whole blood; assay: Human whole blood assay (hWB), inhibition of LTB4 biosynthesis; format: cell-based; settings: read-out: hWB IC50
Description: b) Human Whole Blood Assay:
Compounds are tested in a human whole blood assay (hWB) to test their ability to inhibit LTB4 biosynthesis in a human cellular system. To this end, fresh blood is collected in heparinized vacutainers by venipuncture from volunteers. Blood is diluted 1:3 with RPM (Roswell Park Memorial Institute) medium and aliquots of 200 μL are transferred to 96-well round bottom cell culture plates. For compound testing, compounds are delivered as 10 mM stock solutions in 90% DMSO in matrix tubes. […] 4 μL of compound dilution or vehicle is added to 200 μL of blood and incubated for 4 hours at 37° C. in a humidified incubator. […] Incubation is terminated by centrifugation at 300 g for 10 min at 22° C. Plasma supernatant is taken and transferred to a 96 well plate for eicosanoid determination by ELISA (Assay designs) according to the manufacturer's protocol after 1:20 dilution in assay buffer. The data is analyzed in GraphPad Prism (GraphPad software Inc.) using non-linear regression to determine IC50 values of LTA4H inhibitors.

[2] = molecular target: T1, human LTA4H (Homo sapiens, UniProt P09960); assay: Human LTA4H enzyme assay (Arg-AMC substrate); format: biochemical; settings: Arg-AMC 600 μM, 9 nM human LTA4H, 15 min pre-incubation; mean values of at least 3 measurements; read-out: ArgAMC IC50
T1 sequence (P09960 1-611): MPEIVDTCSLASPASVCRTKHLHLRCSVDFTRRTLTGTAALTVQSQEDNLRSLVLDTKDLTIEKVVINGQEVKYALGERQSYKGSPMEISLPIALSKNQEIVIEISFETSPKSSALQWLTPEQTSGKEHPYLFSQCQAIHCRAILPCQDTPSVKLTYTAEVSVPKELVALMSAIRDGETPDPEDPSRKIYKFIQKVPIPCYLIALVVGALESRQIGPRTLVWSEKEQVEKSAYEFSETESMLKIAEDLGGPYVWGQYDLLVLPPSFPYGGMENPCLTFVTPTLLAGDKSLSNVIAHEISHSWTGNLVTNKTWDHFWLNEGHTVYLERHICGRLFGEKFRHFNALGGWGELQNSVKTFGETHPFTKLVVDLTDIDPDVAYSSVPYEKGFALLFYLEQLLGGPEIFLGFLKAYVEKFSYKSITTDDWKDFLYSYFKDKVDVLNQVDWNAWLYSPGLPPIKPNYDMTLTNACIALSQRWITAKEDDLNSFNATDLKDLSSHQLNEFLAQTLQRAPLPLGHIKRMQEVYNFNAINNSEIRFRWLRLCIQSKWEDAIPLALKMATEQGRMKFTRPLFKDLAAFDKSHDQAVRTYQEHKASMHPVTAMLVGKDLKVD
Description: a) Human LTA4H Enzyme Assay:
[…] (LTA4H) catalyzes the vinylogous hydrolysis of the epoxide, leukotriene A4 (LTA4) into the pro-inflammatory mediator LTB4.
For compound testing, compounds are delivered as 10 mM stock solutions in 90% DMSO (10% water) in matrix tubes. […] A final substrate concentration of 600 μM, which is around the KM value of Arg-AMC, at a final enzyme concentration of 9 nM is chosen. Upon addition of the substrate, the plate is immediately placed in a fluorescence reader and the fluorescence is measured every 10 minutes for 60 minutes using the filter setting λ excitation=380 nm and A emission=460 nm. […] Raw data is converted to rate (moles per minute) using the AMC calibration curve calculated from the AMC standards. The data is analyzed in GraphPad Prism (GraphPad software Inc.) using non-linear regression to determine IC50 values of LTA4H inhibitors.

[3] = Loss on drying by TGA after storage at 92 % RH; format: physicochemical; settings: heating rate 10 K/min, % @ °C, temperature in the line below (100, 230, 170, 195 °C)
Description: Thermoaravimetric Analysis (TGA):
TGA curves were obtained using a TA-instrument Q5000. 0.5-2 mg of sample was placed into an open aluminum pan. The TGA curve was measured at 10° C./min between 30-300° C. The LoD (Loss of drying) was calculated between 30° C. and 100° C. or 150° C. The weight loss is plotted against the measured sample temperature. Temperatures are reported in degrees Celsius (° C.) and weight loss in %.

[4] = Hygroscopicity by DVS; format: physicochemical; settings: at 95% RH
[5] = human blood diluted 1:3, 4 hours with compound, 10 μg/ml A23187 for 15 min, eicosanoid by ELISA

SMILES	IC50 [1, 5]	IC50 [2]	further results
N[C@H](CO)Cn1nnc(-c2ccc(Oc3ncc(-c4ccn[nH]4)cc3F)cn2)n1 [Example 22, (S)-2-amino-3-(5-(5-((3-fluoro-5-(1H-pyrazol-5-yl)pyridin-2-yl)oxy)pyridin-2-yl)-2H-tetrazol-2-yl)propan-1-ol]	0.089 µM	0.0027 µM	
N[C@H](CO)Cn1nnc(-c2ccc(Oc3ccc(Cl)cn3)cc2)n1 [Example 34, (S)-2-Amino-3-(5-(4-((5-chloropyridin-2-yl)oxy)phenyl)-2H-tetrazol-2-yl)propan-1-ol]	0.8 µM	0.004 µM	
N[C@H](CO)Cn1ccc(-c2ccc(Oc3ncc(-c4ccn[nH]4)cc3F)cc2)n1 [Example 43, (S)-2-amino-3-(3-(4-((3-fluoro-5-(1H-pyrazol-5-yl)pyridin-2-yl)oxy)phenyl)-1H-pyrazol-1-yl)propan-1-ol]			Loss on drying by TGA, After 1 day at 92 % RH ([3]; listed as Ex 43): 0.30 @ %; Hygroscopicity (DVS), moisture / water vapor absorbed ([4]; listed as hydrochloride salt (Form E)): 0.6%
N[C@H](CO)Cn1ccc(-c2ccc(Oc3ncc(-c4ccn[nH]4)cc3F)cc2)n1 [Example 45, (S)-2-amino-3-(3-(4-((3-fluoro-5-(1H-pyrazol-5-yl)pyridin-2-yl)oxy)phenyl)-1H-pyrazol-1-yl)propan-1-ol]			Hygroscopicity (DVS), moisture / water vapor absorbed ([4]; listed as Modification A): about 0.5%; Hygroscopicity (DVS), moisture / water vapor absorbed ([4]; listed as hippurate salt (Form A)): 0.5%
CC(O)[C@@H](N)Cc1nc(-c2ccc(Oc3ncc(Br)cc3F)cc2)no1 (mixture of isomers) [Example 18, (3S)-3-amino-4-(3-(4-((5-bromo-3-fluoropyridin-2-yl)oxy)phenyl)-1,2,4-oxadiazol-5-yl)butan-2-ol]	0.343 µM	0.0061 µM	
N[C@H](CO)Cn1nnc(-c2ccc(Oc3ccc(Cl)cc3)cc2)n1 [Example 27, (S)-2-Amino-3-(5-(4-(4-chlorophenoxy)phenyl)-2H-tetrazol-2-yl)propan-1-ol]	0.214 µM	0.0033 µM	
N[C@H](CO)Cn1nnc(-c2ccc(Oc3ccc(C4CC4)cn3)cc2)n1 [Example 28, (S)-2-Amino-3-(5-(4-((5-cyclopropylpyridin-2-yl)oxy)phenyl)-2H-tetrazol-2-yl)propan-1-ol]	0.504 µM	0.0062 µM	
N[C@H](CO)Cn1nnc(-c2ccc(Oc3ccc(Br)cn3)cc2)n1 [Example 33, (S)-2-Amino-3-(5-(4-((5-bromopyridin-2-yl)oxy)phenyl)-2H-tetrazol-2-yl)propan-1-ol]	0.29 µM	0.0024 µM	
N[C@H](CO)Cc1nc(-c2ccc(Oc3ccc(C(F)(F)F)cn3)cc2)no1 [Example 04, (S)-2-amino-3-(3-(4-((5-(trifluoromethyl)pyridin-2-yl)oxy)phenyl)-1,2,4-oxadiazol-5-yl)propan-1-ol]	0.327 µM	0.0118 µM	
N[C@H](CO)Cn1ccc(-c2ccc(Oc3ncc(Cl)cc3F)cn2)n1 [Example 23, (S)-2-amino-3-(3-(5-((5-chloro-3-fluoropyridin-2-yl)oxy)pyridin-2-yl)-1H-pyrazol-1-yl)propan-1-ol]	0.753 µM	0.0376 µM	
N[C@H](CO)Cn1ccc(-c2ccc(Oc3ncc(-c4ccn[nH]4)cc3F)cn2)n1 [Example 21, (S)-2-amino-3-(3-(5-((3-fluoro-5-(1H-pyrazol-5-yl)pyridin-2-yl)oxy)pyridin-2-yl)-1H-pyrazol-1-yl)propan-1-ol]	0.123 µM	0.0031 µM	
N[C@@H](CO)Cn1nnc(-c2ccc(Oc3ccc(-c4ccn[nH]4)cn3)cc2)n1 [Example 19, (R)-3-(5-(4-((5-(1H-pyrazol-3-yl)pyridin-2-yl)oxy)phenyl)-2H-tetrazol-2-yl)-2-aminopropan-1-ol]	0.065 µM	0.0049 µM	
N[C@H](CO)Cc1noc(-c2ccc(Oc3ccc(Cl)cn3)cc2)n1 [Example 06]	0.51 µM	0.0094 µM	
NC(CO)Cc1nnn(-c2ccc(Oc3ncc(Cl)cc3F)cc2)n1 (racemic) [Example 39, 2-Amino-3-(2-(4-((5-chloro-3-fluoropyridin-2-yl)oxy)phenyl)-2H-tetrazol-5-yl)propan-1-ol]	0.063 µM	0.0022 µM	
N[C@H](CO)Cn1nnc(-c2cccc([C@@H]3COc4cccnc4O3)c2)n1 [Example 14, (S)-2-amino-3-(5-(3-((R)-2,3-dihydro-[1,4]dioxino[2,3-b]pyridin-3-yl)phenyl)-2H-tetrazol-2-yl)propan-1-ol]	0.039 µM	0.0023 µM	
N[C@H](CO)Cc1nc(-c2ccc(Oc3ccc(Cl)cn3)cc2)no1 [Example 16, (S)-2-amino-3-(3-(4-((5-chloropyridin-2-yl)oxy)phenyl)-1,2,4-oxadiazol-5-yl)propan-1-ol]	0.229 µM	0.0024 µM	
N[C@H](CO)Cc1nc(-c2cccc(Oc3ccc(C(F)(F)F)cn3)c2)no1 [Example 10, (S)-2-amino-3-(3-(3-((5-(trifluoromethyl)pyridin-2-yl)oxy)phenyl)-1,2,4-oxadiazol-5-yl)propan-1-ol]	0.141 µM	0.0063 µM	
N[C@H](CO)Cn1ccc(-c2ccc(Oc3ccc(-c4ccn[nH]4)cn3)cc2)n1 [Example 36]		0.0029 µM	IC50 ([1]; Homo sapiens): 0.06 µM
N[C@H](CO)Cc1nc(-c2cccc(Oc3ccc(Cl)cn3)c2)no1 [Example 02, (S)-2-amino-3-(3-(3-((5-chloropyridin-2-yl)oxy)phenyl)-1,2,4-oxadiazol-5-yl)propan-1-ol]	0.072 µM	0.0021 µM	
N[C@H](CO)Cc1nc(-c2cccc(Oc3ccc(-c4ccn[nH]4)cn3)c2)no1 [Example 09, (S)-3-(3-(3-((5-(1H-pyrazol-5-yl)pyridin-2-yl)oxy)phenyl)-1,2,4-oxadiazol-5-yl)-2-aminopropan-1-ol]	0.074 µM	0.0025 µM	
N[C@H](CO)Cn1ccc(-c2ccc(Oc3ncc(-c4cc[nH]n4)cc3F)cc2)n1 [Example 46, (S)-2-amino-3-(3-(4-((3-fluoro-5-(1H-pyrazol-3-yl)pyridin-2-yl)oxy)phenyl)-1H-pyrazol-1-yl)propan-1-ol]			Loss on drying by TGA, After 1 day at 92 % RH ([3]; listed as Ex 46): 0.96 @ %
N[C@H](CO)Cc1nc(-c2ccc(Oc3ccc(OC(F)F)cn3)cc2)no1 [Example 05, (S)-2-amino-3-(3-(4-((5-(difluoromethoxy)pyridin-2-yl)oxy)phenyl)-1,2,4-oxadiazol-5-yl)propan-1-ol]	1.85 µM	0.0283 µM	
N[C@H](CO)Cn1nnc(-c2ccc(Oc3ccc(-c4ccn[nH]4)cn3)cc2)n1 [Example 20, (S)-3-(5-(4-((5-(1H-pyrazol-3-yl)pyridin-2-yl)oxy)phenyl)-2H-tetrazol-2-yl)-2-aminopropan-1-ol]	0.075 µM	0.0032 µM	
N[C@H](CO)Cc1nc(-c2cccc([C@@H]3COc4ccccc4O3)c2)no1 [Example 15, (S)-2-amino-3-(3-(3-((R)-2,3-dihydrobenzo[b][1,4]dioxin-2-yl)phenyl)-1,2,4-oxadiazol-5-yl)propan-1-ol]	0.079 µM	0.0029 µM	
